Molecular target: T1, urease (from jack beans) (Canavalia ensiformis, UniProt P07374)
T1 construct: urease (from jack beans); lyophilized 5 U/mg for urea assay in serum; purchased Merck KGaA, Germany; host or cells: jack beans (natural source)
Assay: odor-preventing effect: ammonia release from urea/urease solution, read with a diffusion tube
Type: biochemical
Conditions: 2 g composition, 30 mg urease, 50 ml 0.9% NaCl with 8.56 g/l urea, 23° C.
Procedure: 100 g lots of water-absorbing polymer from Example 1 were mixed in a tumble mixer with different amounts of N-cyclohexylthiophosphoramide, N-(n-butyl)thiophosphoramide or N-(n-propyl)thiophosphoramide, for 20 minutes each.
To determine the odor-preventing effect, 2 g of each of the compositions produced above were placed in a 100 ml Erlenmeyer flask and admixed with a freshly prepared solution of 30 mg of urease (from jack beans; lyophilized 5 U/mg for urea assay in serum; Merck KGaA, Germany) and 50 ml of 0.9% sodium chloride solution, the sodium chloride solution containing 8.56 g/l of urea, and sealed with a stopper having an internal diffusion tublet (Drager® Röhrchen; ammonia 20/a-D, 20 to 1500 ppm*h). The measured value was read off every 30 minutes. The measurement was discontinued after 6 hours. The test was carried out at 23° C.

[1] = 0.01 % by weight substituted thiophosphoramide in composition with water-absorbing polymer
[2] = 0.05 % by weight substituted thiophosphoramide in composition with water-absorbing polymer
[3] = 0.15 % by weight substituted thiophosphoramide in composition with water-absorbing polymer
[4] = 0.25 % by weight substituted thiophosphoramide in composition with water-absorbing polymer
[5] = 0.35 % by weight substituted thiophosphoramide in composition with water-absorbing polymer
[6] = 0.50 % by weight substituted thiophosphoramide in composition with water-absorbing polymer
[7] = 1.50 % by weight substituted thiophosphoramide in composition with water-absorbing polymer

T1 sequence (P07374 whole entry, looked up): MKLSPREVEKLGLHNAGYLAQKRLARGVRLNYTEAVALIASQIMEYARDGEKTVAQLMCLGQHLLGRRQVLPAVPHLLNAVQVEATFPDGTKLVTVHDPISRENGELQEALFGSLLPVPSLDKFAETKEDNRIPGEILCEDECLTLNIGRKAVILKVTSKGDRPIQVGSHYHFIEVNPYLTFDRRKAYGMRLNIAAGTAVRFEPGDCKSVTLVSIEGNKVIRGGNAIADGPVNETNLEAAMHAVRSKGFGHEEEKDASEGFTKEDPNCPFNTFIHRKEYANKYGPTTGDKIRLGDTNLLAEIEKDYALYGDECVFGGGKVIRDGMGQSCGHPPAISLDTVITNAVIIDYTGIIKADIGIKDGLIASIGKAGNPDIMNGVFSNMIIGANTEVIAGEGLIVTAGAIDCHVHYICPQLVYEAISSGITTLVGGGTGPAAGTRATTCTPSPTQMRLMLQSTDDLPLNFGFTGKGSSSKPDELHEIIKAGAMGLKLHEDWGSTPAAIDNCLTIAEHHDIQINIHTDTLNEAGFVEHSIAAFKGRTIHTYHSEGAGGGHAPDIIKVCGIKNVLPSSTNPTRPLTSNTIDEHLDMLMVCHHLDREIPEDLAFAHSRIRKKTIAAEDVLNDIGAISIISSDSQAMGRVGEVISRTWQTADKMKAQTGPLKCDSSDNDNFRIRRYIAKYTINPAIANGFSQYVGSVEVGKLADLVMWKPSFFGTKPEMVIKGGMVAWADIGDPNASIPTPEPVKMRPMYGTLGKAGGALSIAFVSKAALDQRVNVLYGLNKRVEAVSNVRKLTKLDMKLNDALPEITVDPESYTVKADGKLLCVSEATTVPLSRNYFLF

SMILES	ammonia after 6 hours [1]	ammonia after 6 hours [2]	ammonia after 6 hours [3]	ammonia after 6 hours [4]	ammonia after 6 hours [5]	ammonia after 6 hours [6]	ammonia after 6 hours [7]
NP(N)(=S)NC1CCCCC1 [R = cyclohexyl, N-cyclohexylthiophosphoramide, reference compound]	− (more than 50 ppm of ammonia after 6 hours)	− (more than 50 ppm of ammonia after 6 hours)	− (more than 50 ppm of ammonia after 6 hours)	− (more than 50 ppm of ammonia after 6 hours)	+ (less than 50 ppm of ammonia after 6 hours)	+ (less than 50 ppm of ammonia after 6 hours)	+ (less than 50 ppm of ammonia after 6 hours)
CCCCNP(N)(N)=S [R = n-butyl, N-(n-butyl)thiophosphoramide]	+ (less than 50 ppm of ammonia after 6 hours)	+ (less than 50 ppm of ammonia after 6 hours)	+ (less than 50 ppm of ammonia after 6 hours)	+ (less than 50 ppm of ammonia after 6 hours)	+ (less than 50 ppm of ammonia after 6 hours)	+ (less than 50 ppm of ammonia after 6 hours)	+ (less than 50 ppm of ammonia after 6 hours)
CCCNP(N)(N)=S [R = n-propyl, N-(n-propyl)thiophosphoramide]	+ (less than 50 ppm of ammonia after 6 hours)	+ (less than 50 ppm of ammonia after 6 hours)	+ (less than 50 ppm of ammonia after 6 hours)	+ (less than 50 ppm of ammonia after 6 hours)	+ (less than 50 ppm of ammonia after 6 hours)	+ (less than 50 ppm of ammonia after 6 hours)	+ (less than 50 ppm of ammonia after 6 hours)
